From article PMC8199500, “Novel Bis- and Mono-Pyrrolo[2,3-d]pyrimidine and Purine Derivatives: Synthesis, Computational Analysis and Antiproliferative Evaluation” (Molecules, 2021)

Experiments:
[1] = system: ductal pancreatic adenocarcinoma (CFPAC-1) cells; test: MTT proliferation assay, CFPAC-1 cells; format: cell-based, human
Description: (§1) Human carcinoma cell lines A549 (lung carcinoma), HeLa (cervical carcinoma), SW620 (colorectal adenocarcinoma, metastatic) and CFPAC-1 (pancreatic cancer, derived from metastatic: liver), and normal human foreskin (HFF-1) fibroblasts were obtained from the American Type Culture Collection (ATCC, Manassas, VA, USA). Cells were cultured in humidified atmosphere at 37 °C with 5% CO2. As growth medium, Dulbecco′s modified Eagle medium (DMEM) was used with the addition of fetal bovine serum (10%), L-glutamine (2 mM) and antibiotics: streptomycin ([…]) and penicillin (100 U/mL).
(§2) Cells were seeded onto 96-well microtiter plates at a seeding density of 3000 cells/well for carcinoma cell lines, and 5000 cells/well for normal human fibroblasts. The next day, cells were treated with test agents in five different concentrations (0.01–100 µM) and further incubated for 72 h. […] Following 72 h incubation, the MTT assay was performed and measured absorbances were transformed into percentage of cell growth as described previously. Results were obtained from three independent experiments. IC50 values were calculated using linear regression analysis and results were statistically analyzed by ANOVA, Tukey post-hoc test (p < 0.05).

[2] = system: cervical carcinoma (HeLa) cells; test: MTT proliferation assay, HeLa cells; format: cell-based, human; conditions: 72 h incubation
Description: as §1, §2

[3] = system: metastatic colorectal adenocarcinoma (SW620) cells; test: MTT proliferation assay, SW620 cells; format: cell-based, human
Description: as §1, §2

[4] = system: lung adenocarcinoma (A549) cells; test: MTT proliferation assay, A549 cells; format: cell-based, human
Description: as §1, §2

[5] = system: normal human foreskin fibroblasts (HFF-1); test: MTT proliferation assay, normal fibroblasts HFF-1; format: cell-based; conditions: 72 h incubation
Description: as §1, §2

[6] = Homo sapiens, CFPAC-1, 72 h incubation
[7] = Homo sapiens, SW-620, 72 h incubation
[8] = Homo sapiens, A549, 72 h incubation

Row | Molecule | IC50 ([1]; 72 h incubation) | IC50 [2] | IC50 ([3]; 72 h incubation) | IC50 ([4]; 72 h incubation) | IC50 [1, 6] | IC50 ([2]; Homo sapiens, HeLa) | IC50 [3, 7] | IC50 [4, 8] | IC50 [5] | melting point
1 | 6-(piperidin-1-yl)-9-{2-[4-(((4′-(prop-2-yn-1-yloxy)-[1,1′-biphenyl]-4-yl)oxy)methyl)-1H-1,2,3-triazol-1-yl]ethyl}-9H-purine [10f] | 6.5 ± 0.78 µM | 8.1 ± 2.2 µM | 98 ± 1.3 µM | 62.1 ± 2.3 µM |  |  |  |  |  | 
2 | Clc1ncnc2c1ccn2CCn1cc(COc2ccc(OCc3cn(CCn4ccc5c(Cl)ncnc54)nn3)cc2)nn1 [5a, 1,4-Bis{[1-(2-(4-chloro-7H-pyrrolo[2,3-d]pyrimidin-7-yl)ethyl)-1H-1,2,3-triazol-4-yl]methoxy}benzene] |  |  |  |  | > 100 µM | 77 ± 2.6 µM | > 100 µM | > 100 µM |  | 
3 | Clc1ncnc2c1ccn2CCn1cc(COc2ccc(-c3ccc(OCc4cn(CCn5ccc6c(Cl)ncnc65)nn4)cc3)cc2)nn1 [5b, 4,4′-Bis{[1-(2-(4-chloro-7H-pyrrolo[2,3-d]pyrimidin-7-yl)ethyl)-1H-1,2,3-triazol-4-yl]-methoxy}-1,1′-biphenyl] |  |  |  |  | > 100 µM | > 100 µM | > 100 µM | 6.3 ± 1.2 µM | 0.13 µM | 
4 | Clc1ncnc2c1ccn2CCn1cc(CCCc2cn(CCn3ccc4c(Cl)ncnc43)nn2)nn1 [5c, 1,3-Bis{1-[2-(4-chloro-7H-pyrrolo[2,3-d]pyrimidin-7-yl)ethyl]-1H-1,2,3-triazol-4-yl}propane] |  |  |  |  | 74.9 ± 3.8 µM | 99.7 ± 5.9 µM | > 100 µM | 99.6 ± 1.5 µM |  | 
5 | C#CCCCc1cn(CCn2ccc3c(Cl)ncnc32)nn1 [5g, 4-chloro-7-{2-[4-(pent-4-yn-1-yl)-1H-1,2,3-triazol-1-yl]ethyl}-7H-pyrrolo[2,3-d]pyrimidine] |  |  |  |  | 19.5 ± 4 µM | 75 ± 3.5 µM | 80.5 ± 14.9 µM | > 100 µM |  | 
6 | c1nc(N2CCCCC2)c2ccn(CCn3cc(COc4ccc(OCc5cn(CCn6ccc7c(N8CCCCC8)ncnc76)nn5)cc4)nn3)c2n1 [6a, 1,4-Bis{[1-(2-(4-(piperidin-1-yl)-7H-pyrrolo[2,3-d]pyrimidin-7-yl)ethyl)-1H-1,2,3-triazol-4-yl]methoxy}benzene] |  |  |  |  | > 100 µM | > 100 µM | > 100 µM | > 100 µM |  | 185 to 187 °C
7 | c1nc(N2CCCCC2)c2ccn(CCn3cc(COc4ccc(-c5ccc(OCc6cn(CCn7ccc8c(N9CCCCC9)ncnc87)nn6)cc5)cc4)nn3)c2n1 [6b, 4,4′-Bis{[1-(2-(4-(piperidin-1-yl)-7H-pyrrolo[2,3-d]pyrimidin-7-yl)ethyl)-1H-1,2,3-triazol-4-yl]methoxy}-1,1′-biphenyl] |  |  |  |  | 17.4 ± 6.3 µM | 68.5 ± 3.2 µM | 24.7 ± 8.7 µM | 53.9 ± 2.1 µM |  | 137 to 139 °C
8 | c1nc(N2CCCC2)c2ccn(CCn3cc(COc4ccc(-c5ccc(OCc6cn(CCn7ccc8c(N9CCCC9)ncnc87)nn6)cc5)cc4)nn3)c2n1 [7b, 4,4′-Bis{[1-(2-(4-(pyrrolidin-1-yl)-7H-pyrrolo[2,3-d]pyrimidin-7-yl)ethyl)-1H-1,2,3-triazol-4-yl]methoxy}-1,1′-biphenyl] |  |  |  |  | 77.4 ± 3.5 µM | 54.6 ± 5.2 µM | > 100 µM | 69 ± 1.2 µM |  | 187 to 189 °C
9 | c1nc(N2CCCC2)c2ccn(CCn3cc(CCCc4cn(CCn5ccc6c(N7CCCC7)ncnc65)nn4)nn3)c2n1 [7c, 1,3-Bis{1-[2-(4-(pyrrolidin-1-yl)-7H-pyrrolo[2,3-d]pyrimidin-7-yl)ethyl]-1H-1,2,3-triazol-4-yl}propane] |  |  |  |  | 65.3 ± 5.7 µM | 80 ± 1.5 µM | > 100 µM | > 100 µM |  | 170 to 172 °C
10 | c1nc(N2CCCCC2)c2ncn(CCn3cc(COc4ccc(OCc5cn(CCn6cnc7c(N8CCCCC8)ncnc76)nn5)cc4)nn3)c2n1 [9a, 1,4-Bis{[1-(2-(6-(piperidin-1-yl)-9H-purin-9-yl)ethyl)-1H-1,2,3-triazol-4-yl]methoxy}benzene] |  |  |  |  | 9.1 ± 1.3 µM | 16.2 ± 0.05 µM | 43.5 ± 4.4 µM | 53.5 ± 8 µM | 0.76 µM | 
11 | c1nc(N2CCCCC2)c2ncn(CCn3cc(CCCc4cn(CCn5cnc6c(N7CCCCC7)ncnc65)nn4)nn3)c2n1 [9c, 1,3-Bis{1-[2-(6-(piperidin-1-yl)-9H-purin-9-yl)ethyl]-1H-1,2,3-triazol-4-yl}propane] |  |  |  |  | 53.9 ± 3.4 µM | 41.2 ± 0.99 µM | > 100 µM | > 100 µM |  | 
12 | C#CCOc1ccc(OCc2cn(CCn3cnc4c(N5CCCCC5)ncnc43)nn2)cc1 [9e, 6-(piperidin-1-yl)-9-{2-[4-((4-(prop-2-yn-1-yloxy)phenoxy)methyl)-1H-1,2,3-triazol-1-yl]ethyl}-9H-purine] |  |  |  |  | 23.4 ± 4.2 µM | 17.1 ± 1.3 µM | 35.7 ± 0.79 µM | 58.7 ± 10.2 µM |  | 233 to 236 °C
13 | C#CCCCc1cn(CCn2cnc3c(N4CCCCC4)ncnc32)nn1 [9g, 9-{2-[4-(pent-4-yn-1-yl)-1H-1,2,3-triazol-1-yl]ethyl}-6-(piperidin-1-yl)-9H-purine] |  |  |  |  | 75.2 ± 12.2 µM | 72.2 ± 9 µM | > 100 µM | > 100 µM |  | 
14 | c1nc(N2CCCC2)c2ncn(CCn3cc(COc4ccc(OCc5cn(CCn6cnc7c(N8CCCC8)ncnc76)nn5)cc4)nn3)c2n1 [10a, 1,4-Bis{[1-(2-(6-(pyrrolidin-1-yl)-9H-purin-9-yl)ethyl)-1H-1,2,3-triazol-4-yl]methoxy}benzene] |  |  |  |  | 48.5 ± 1.6 µM | 60.6 ± 5.9 µM | 98.3 ± 7.4 µM | 95 ± 3.2 µM |  | 
15 | Nc1ncnc2c1ncn2CCn1cc(COc2ccc(OCc3cn(CCn4cnc5c(N)ncnc54)nn3)cc2)nn1 [11a, 1,4-Bis{[1-(2-(6-amino-9H-purin-9-yl)ethyl)-1H-1,2,3-triazol-4-yl]methoxy}benzene] |  |  |  |  | > 100 µM | > 100 µM | > 100 µM | > 100 µM |  | 
16 | C#CCOc1ccc(OCc2cn(CCn3cnc4c(N)ncnc43)nn2)cc1 [11e, 6-amino-9-{2-[4-((4-(prop-2-yn-1-yloxy)phenoxy)methyl)-1H-1,2,3-triazol-1-yl]ethyl}-9H-purine] |  |  |  |  | > 100 µM | > 100 µM | > 100 µM | > 100 µM |  | > 280 °C
17 | C#CCCCc1cn(CCn2cnc3c(N)ncnc32)nn1 [11g, 6-Amino-9-{2-[4-(pent-4-yn-1-yl)-1H-1,2,3-triazol-1-yl]ethyl}-9H-purine] |  |  |  |  | > 100 µM | > 100 µM | > 100 µM | > 100 µM |  | 226 to 228 °C
18 | C#CCOCc1cn(CCn2cnc3c(N)ncnc32)nn1 [11h, 6-amino-9-{2-[4-((prop-2-yn-1-yloxy)methyl)-1H-1,2,3-triazol-1-yl]ethyl}-9H-purine] |  |  |  |  | > 100 µM | > 100 µM | > 100 µM | > 100 µM |  | 191 to 193 °C
19 | {1-[2-(4-(Pyrrolidin-1-yl)-7H-pyrrolo[2,3-d]pyrimidin-7-yl)ethyl]-1H-1,2,3-triazol-4-yl}methyl ether [7d] | > 100 µM | > 100 µM | > 100 µM | > 100 µM |  |  |  |  |  | 
20 | {1-[2-(4-Chloro-7H-pyrrolo[2,3-d]pyrimidin-7-yl)ethyl]-1H-1,2,3-triazol-4-yl}methyl ether [5d] | 36.5 ± 3.9 µM | > 100 µM | 53.5 ± 4.8 µM | > 100 µM |  |  |  |  |  | 
21 | {1-[2-(6-(Piperidin-1-yl)-9H-purin-9-yl)ethyl]-1H-1,2,3-triazol-4-yl}methyl ether [9d] | 56.8 ± 2.9 µM | 34.7 ± 12.1 µM | 66.1 ± 3 µM | 73.1 ± 7.7 µM |  |  |  |  |  | 
22 | {1-[2-(6-(Piperidin-1-yl)-9H-purin-9-yl)ethyl]-1H-1,2,3-triazol-4-yl}methyl ether [10d] | 52.5 ± 4.6 µM | 66.9 ± 11.2 µM | 63.4 ± 3.6 µM | 87.3 ± 4.4 µM |  |  |  |  |  | 
23 | {1-[2-(6-Amino-9H-purin-9-yl)ethyl]-1H-1,2,3-triazol-4-yl}methyl ether [11d] | > 100 µM | > 100 µM | > 100 µM | > 100 µM |  |  |  |  |  | 
